Measurements: US10434132B2, “Galactolipids-enriched plant extracts and the uses thereof” (ACADEMIA SINICA, priority 2013, dated 2019)

Experiments:
MITF = test: Western blot of MITF expression in B16 melanoma cells; format: cell-based; details: FIG. 10C, 45 μM dLGG
Method: (§1) The cellular proteins were produced according to previously published method (Chiang et al., 2005). Protein content was measured by Bradford method (Bio-Rad).
(§2) Molecular mechanism of dLGG depigmentation effect was further studied. Western blotting assay was preceded for testing the effect of dLGG on tyrosinase and MITF expression.

[1] = system: hypoxia inducible factor-1α (HIF-1α); test: HIF-1α expression in LPS-challenged mice; format: in vivo; details: FIG. 9A, 9C; pre-treatment before LPS
Method: (§3) The plant components or the drugs were all injected an hour before administration of LPS. Another animal group was only treated with 25 mg/kg dLGG (dLGG 25 only). All groups were sacrificed after 24 hours and blood samples were collected by retro-orbital bleeding before scarification of mice and organ tissues were collected immediately.

[2] = system: LPS/D-GaIN-challenged mice; test: LPS/D-GaIN-induced acute fulminant hepatitis in mice; format: in vivo
Method: The hepatoprotective effect in live body of compound dLGG isolated from Crassocephalum rabens (Asteraceae) in LPS/D-GaIN-induced fulminant hepatitis were investigated and compared with the hepatoprotective drug, silymarin (SM). Mice were randomly separated into four groups (n=6 per group) for treatments: vehicle; LPS/D-GaIN; 50 mg/kg of silymarin (Post-SM50); and 10 mg/kg dLGG (post-dLGG10), and all treatments were given intraperitoneally. One hour after the mice treated with 500 ng LPS and 250 μL saline containing 25 mg D-GaIN (Huang et al., 2012), the dLGG and silymarin were given intraperitoneally. Besides, the other two groups of mice were treated dLGG or silymarin continuously for three days to perform the protection effect of dLGG against LPS/D-GaIN induced fulminate hepatitis. Eight hours after LPS/D-GaIN injection, blood samples were collected through retro-orbital bleeding, and then all mice were sacrificed to collect blood samples and liver tissues.
(§4) Liver, lung and kidney tissues were fixed in 10% buffered formalin then it were embedded into paraffin. The paraffin-embedded tissues were sliced (8-μm) and stained by hematoxylin and eosin (H&E). Besides, sections of paraffin-embedded liver and lung (4-μm for thickness) were heat immobilized and deparaffinized by use of xylene and rehydrated in a graded series of ethanol with a final wash in distilled water, and finally soaked into decloaking chamber (Biocare Medical) containing Target Retrieval Solution (DakoCytomation) for antigen retrieval.
In situ detection of apoptotic cells was conducted according to the manufacturer's protocol (Chemicon). It is using terminal deoxynucleotidyl transferase to work on nucleotide sequence to […] for terminal deoxynucleotidyl transferase-mediated dUTP nick end labeling. Finally, AxioVision software (Carl Zeiss MicroImaging, Inc.) was used to analyze the number of TUNEL-positive cells.
(§5) Blood samples of tested mice were centrifuged under 4° C., 1400× g for 15 minutes to separate serum from blood. Commercial kit purchased from Randox Laboratories (UK) was used to determine the activity of aspartate aminotransferase (AST) and alanine aminotransferase (ALT) in serum supernatants.

PPAR-δ = PPAR-δ expression in LPS-challenged mice; format: in vivo; details: FIG. 9B, 9D; pre-treatment before LPS
Method: as §3

[3] = dLGG only treatment of mice without LPS challenge; format: in vivo; details: dLGG 25 mg/kg only, no LPS, 24 hours
Method: as §3
Moreover, one group of mice was treated with dLGG (25 mg/kg) without LPS challenge. All the mice were sacrificed after 24 hours. Mice sera were collected to measure and compare the concentration of IL-6 and TNF-α, and the levels of AST and ALT.

LPS-challenged mice = test: LPS-induced acute inflammation and sepsis in mice; format: in vivo
Method: as §3, §4
Immunohistochemistry with liver, lung and kidney tissues were done by incubating the samples into F4/80 primary antibody for overnight respectively. After subsequent washing, each of the samples was incubated using florescent-labeled secondary antibody. Florescent images of the macrophage cell infiltration (positive F4/80 stained cell) were captured by AxioVision software (Carl Zeiss MicroImaging, Inc.) and then analyzed.
as §5
Serum levels of interleukin (IL-6) and tumor necrosis factor-alpha (TNF-α) were determined using a commercial kit from eBioscience.

B16 melanoma cells = test: Depigmentation assay in B16 melanoma cells; format: cell-based; details: FIG. 10B; 45 μM, vs vehicle control
Method: B16 melanoma cell line was obtained from ATCC (Manassas, Va.) and grown in RPMI medium 1640 (Gibco/BRL) supplemented with 10% heat-inactivated fetal bovine serum, 100 unit/mL penicillin and 100 μg/mL streptomycin, at 37° C. in a humidified 5% CO2 incubator.
B16 melanoma cell line was plated on to 10 cm culture dishes at an initial density of 1×10^5 cells dish^−1 and then cultured under the same condition described above. After 12 hours of seeding, the cells were treated by vehicle DMSO, kojic acid (KA), ethyl acetate (EA) fractions of CR's water and ethanolic extractions (Hou et al., 2007) for 72 hours. These cells were harvested by centrifuge and visually evaluated the color of these cell pellets. In another experiment, depigmentation effect of the single compound dLGG was observed and evaluated at different time points with the same procedure.

tyrosinase = test: Western blot of tyrosinase expression in B16 melanoma cells; format: cell-based; details: FIG. 10C, 45 μM dLGG
Method: as §1, §2

[4] = FIG. 5A, dLGG 10 mg/kg or SM 50 mg/kg i.p. 1 hour after LPS/D-GaIN, blood at 8 hours
[5] = high dose (CR-EA 50 mg/kg, dLGG 25 mg/kg) 1 hour before 10 mg/kg LPS, serum at 24 hours

CC/C=C\C/C=C\C/C=C\CCCCCCCC(=O)OC[C@H](CO[C@@H]1O[C@H](CO)[C@H](O)[C@H](O)[C@H]1O)OC(=O)CCCCCCC/C=C\C/C=C\C/C=C\CC [dLGG, 1,2,di-O-α-linolenoyl-3-O-β-galactopyranosyl-sn-glycerol]
expression of MITF (western blot) (MITF): inhibit the expression
HIF-1α expression [1]: down-regulated
serum ALT level [2, 4]: significantly inhibit
serum AST level [2, 4]: significantly inhibit
liver histology H&E (infiltration of inflammatory cells into liver lobules, tissue destruction, erythrocyte influx) ([2]; FIG. 5B, dLGG 10 mg/kg or SM 50 mg/kg i.p. 1 hour after LPS/D-GaIN): attenuated
numbers of apoptosis cells, TUNEL positive-stained cells in liver tissue ([2]; FIG. 5C, dLGG 10 mg/kg i.p. after LPS/D-GaIN): significantly decreased
protection against LPS/D-GaIN-induced fulminant hepatic failure ([2]; pre-treated 1 or 10 mg/kg 1 hour before LPS/D-GaIN-challenge, data not shown): significant protection effect
PPAR-δ expression (PPAR-δ): down-regulated
harm to mice [3]: harmfulless to mice
sepsis-induced acute kidney injury, renal histology (H&E) (LPS-challenged mice; FIG. 8A, pre-treated 1 hour before LPS, simvastatin 10 mg/kg): remarkably protective effect
infiltration and activation of macrophages (F4/80 immunohistology staining) (LPS-challenged mice; FIG. 8C, pre-treated 1 hour before LPS, simvastatin 10 mg/kg): decreased infiltration and activation of macrophages
damages in mice liver, lung and kidney caused by LPS (LPS-challenged mice; dLGG 25 mg/kg after LPS-challenge, data not shown): effectively reduce damages
serum ALT decrease (LPS-challenged mice; [5]): 2.3 times
serum AST decrease (LPS-challenged mice; [5]): 1.8 times
serum IL-6 decrease (LPS-challenged mice; [5]): 3.5 times
serum TNF-α decrease (LPS-challenged mice; [5]): 3.0 times
depigmentation of B16 melanoma cells at different time points (B16 melanoma cells): significantly depigmentation in a time-dependent manner
expression of tyrosinase (western blot) (tyrosinase): inhibit the expression
